PMC8496750, “Identification of the organic anion transporting polypeptides responsible for the hepatic uptake of the major metabolite of epyrifenacil, S‐3100‐CA, in mice” (Pharmacology Research & Perspectives, 2021)

Assays:
human OATP1B1 = biological target: T1, human OATP1B1 (Homo sapiens, UniProt Q9Y6L6); test: Inhibition of S‐3100‐CA uptake by OATP inhibitors, human OATP1B1; type: in vitro ADME; conditions: inhibitor at 100 μM
T1 construct: expressed in transfected cells; host or cells: 293FT cells
T1 sequence (Q9Y6L6 1-691): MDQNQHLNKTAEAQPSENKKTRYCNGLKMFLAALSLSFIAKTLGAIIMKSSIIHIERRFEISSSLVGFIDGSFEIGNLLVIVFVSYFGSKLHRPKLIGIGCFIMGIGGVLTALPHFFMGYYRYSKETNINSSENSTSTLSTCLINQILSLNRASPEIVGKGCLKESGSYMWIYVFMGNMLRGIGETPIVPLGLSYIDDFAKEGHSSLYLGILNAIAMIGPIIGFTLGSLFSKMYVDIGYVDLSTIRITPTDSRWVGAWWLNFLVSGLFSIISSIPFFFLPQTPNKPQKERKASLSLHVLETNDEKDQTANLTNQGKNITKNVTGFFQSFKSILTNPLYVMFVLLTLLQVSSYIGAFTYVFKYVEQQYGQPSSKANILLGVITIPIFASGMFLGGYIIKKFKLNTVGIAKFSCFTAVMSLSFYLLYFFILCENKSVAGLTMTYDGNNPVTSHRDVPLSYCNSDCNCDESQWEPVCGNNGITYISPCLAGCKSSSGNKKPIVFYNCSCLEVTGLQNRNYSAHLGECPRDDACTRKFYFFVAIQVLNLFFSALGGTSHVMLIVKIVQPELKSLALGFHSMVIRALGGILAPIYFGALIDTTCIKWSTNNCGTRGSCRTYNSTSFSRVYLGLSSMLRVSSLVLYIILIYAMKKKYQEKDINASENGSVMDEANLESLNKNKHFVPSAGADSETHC
Experimental: (§1) 293FT cells were purchased from Thermo Fisher Scientific, Inc.. The cells were grown in Dulbecco's modified Eagle medium (supplemented with 4.5 g/L glucose and 2 mM L‐glutamine) at 37°C, 5% CO2, and 95% humidity. The cells were passaged 3 times per week by harvesting cells using trypsin and plating at a density of 1.0 × 10^4 cells/cm^2 in a 10 cm cell culture plate for maintenance culture. The 293FT cells were detached using trypsin and re‐seeded at a density of 2.5 × 10^4 cells/cm^2 in BioCoat™ Collagen I 6‐well plates (Corning Inc.) for transfection and then treated with 1.2 μg of plasmid vector and 3.2 μl of Lipofectamine™ 2000 Transfection Reagent (Thermo Fisher Scientific, Inc.) according to the manufacturer's instructions. After a 3‐h treatment, the transfection medium was replaced with a fresh cell culture medium and incubated at 37°C with 95% humidity and 5% CO2 until ready for the assay.
(§2) Transport experiments were conducted approximately 24 h post‐transfection. […] From the lysate, 1.0 ml was transferred to a vial containing 10 ml of Emulsifier Scintillator Plus to measure the radioactivity in the LSC. The protein concentration of the cell lysate was also measured using a Pierce™ BCA Protein Assay Kit (Thermo Fisher Scientific, Inc.), which was used to normalize, according to the cell number, the radioactivity in the cell lysate extract. […]

mouse Oatp1b2 = biological target: T2, mouse Oatp1b2 (Mus musculus, UniProt Q9JJL3); test: Inhibition of S‐3100‐CA uptake by OATP inhibitors, mouse Oatp1b2; type: in vitro ADME; design: expressed in transfected cells; host or cells: 293FT cells; conditions: inhibitor at 100 μM
T2 sequence (Q9JJL3 1-689): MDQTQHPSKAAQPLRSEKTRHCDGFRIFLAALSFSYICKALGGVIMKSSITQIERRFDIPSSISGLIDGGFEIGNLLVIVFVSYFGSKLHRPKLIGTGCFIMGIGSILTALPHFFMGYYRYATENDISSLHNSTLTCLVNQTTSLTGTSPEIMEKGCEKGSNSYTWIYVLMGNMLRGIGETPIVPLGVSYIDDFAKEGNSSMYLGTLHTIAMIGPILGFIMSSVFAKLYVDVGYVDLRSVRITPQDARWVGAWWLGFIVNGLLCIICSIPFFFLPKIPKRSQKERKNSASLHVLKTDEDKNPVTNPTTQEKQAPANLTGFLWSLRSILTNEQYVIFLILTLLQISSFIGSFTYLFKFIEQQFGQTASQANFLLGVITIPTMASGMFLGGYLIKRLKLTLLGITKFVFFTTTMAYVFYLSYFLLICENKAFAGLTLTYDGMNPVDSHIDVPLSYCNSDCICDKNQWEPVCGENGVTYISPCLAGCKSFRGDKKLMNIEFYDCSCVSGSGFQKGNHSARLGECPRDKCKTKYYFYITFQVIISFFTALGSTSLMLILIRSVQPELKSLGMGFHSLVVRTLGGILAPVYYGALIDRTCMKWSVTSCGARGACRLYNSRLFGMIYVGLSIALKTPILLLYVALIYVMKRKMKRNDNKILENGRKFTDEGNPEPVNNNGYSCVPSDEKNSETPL
Experimental: as §1, §2

CO[C@H]1/C=C/O[C@@]2(C)Oc3c(C)c(O)c4c(O)c(c(/C=N/N5CCN(C)CC5)c(O)c4c3C2=O)NC(=O)/C(C)=C\C=C\[C@H](C)[C@H](O)[C@@H](C)[C@@H](O)[C@@H](C)[C@H](OC(C)=O)[C@@H]1C [RIF, Rifampicin]
Uptake of S‐3100‐CA, % of that by vehicle‐treated cells (human OATP1B1): less than 40% | Uptake of S‐3100‐CA, % of that by vehicle‐treated cells (mouse Oatp1b2): less than 40%
